Assay results: patent publication US11000033B2, “Ketone or oxime compound, and herbicide” (NISSAN CHEMICAL CORPORATION, priority 2014, dated 2021)

Tests used:
Assay type in all cases: in vivo
[1] = tested on: Echinochloa oryzacola Vasing.; experiment: Test Example 2: herbicidal activity, application during weed generation in submerged conditions (symbol A); conditions: Table 23; application herbicide amount 320 g/ha; grade 0-5 by criteria of Test Example 1
How it was run: (§1)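 Visual herbicidal ratings, taken three weeks after dosing, reflect post-emergence water-surface application to seedlings at one to two leaves. Conditions: co-sown weeds in alluvial soil flooded to 4 cm, greenhouse held at 25° C. to 30° C.; compound given as water-diluted emulsion at a fixed herbicide amount.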

beet [2] = experiment: Test Example 4: effect on crop by soil treatment (symbol f)
How it was run: (§2)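 Soil-treatment setup: crop and weed seeds were spot-sown into sterilized diluvial soil, then buried beneath approximately 1.5 cm of it, and the boxes were housed in a 25–30° C. greenhouse.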

corn = experiment: Test Example 4: effect on crop by soil treatment (symbol c)
How it was run: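 Sterilized diluvial soil, spot sowing, ~1.5 cm soil cover; greenhouse 25–30° C.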

Amaranthus retroflexus = experiment: Test Example 5: herbicidal effect by foliage application, plastic box (symbol N); conditions: 320 g/ha, 3 weeks after application
How it was run: (§3)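 Post-emergence spray; diluvial soil (sterilized), ~1.5 cm seed cover; greenhouse 25–30° C; 14-day-old plants; water-diluted emulsion at predetermined dose; visual score at 3 wk post-treatment.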

Galium spurium [3] = experiment: Test Example 5: herbicidal effect by foliage application, plastic box (symbol Q); conditions: 320 g/ha, 3 weeks after application
How it was run: as §3

Abutilon theophrasti = experiment: Test Example 4: herbicidal effect by soil treatment (symbol M)
How it was run: (§4)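 Seeds were sown in sterilized diluvial soil, covered with about 1.5 cm of soil, and the soil surface was sprayed with a water-diluted emulsion of the compound at a predetermined rate. Plants grew in a greenhouse at 25° C. to 30° C.; effects were scored visually 3 weeks after application.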

beet [4] = experiment: Test Example 5: effect on crop by foliage application, plastic box (symbol f); conditions: 320 g/ha, 3 weeks after application
How it was run: (§5)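 Soil: sterilized diluvial. Container: plastic box, 21 × 13 cm, 7 cm deep. Sowing: spot-like, ~1.5 cm cover. Growth: greenhouse, 25° C. to 30° C.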

rice plant = experiment: Test Example 5: effect on crop by foliage application, plastic box (symbol b); conditions: 320 g/ha, 3 weeks after application
How it was run: as §5

Galium spurium [5] = experiment: Test Example 4: herbicidal effect by soil treatment (symbol Q)
How it was run: as §4

Lolium multiflorum Lam. = experiment: Test Example 5: herbicidal effect by foliage application, plastic box (symbol K); conditions: 320 g/ha, 3 weeks after application
How it was run: as §3

Alopecurus myosuroides = experiment: Test Example 5: herbicidal effect by foliage application, plastic box (symbol J); conditions: 320 g/ha, 3 weeks after application
How it was run: as §3

Monochoria vaginalis [6] = experiment: Test Example 2: herbicidal activity, application during weed generation in submerged conditions (symbol C); conditions: Table 23; application herbicide amount 320 g/ha; grade 0-5 by criteria of Test Example 1
How it was run: as §1

Setaria viridis = experiment: Test Example 4: herbicidal effect by soil treatment (symbol G)
How it was run: as §4

Monochoria vaginalis [7] = experiment: Test Example 1: herbicidal activity, application before weed generation in submerged conditions (symbol C); conditions: application herbicide amount 320 g/ha
How it was run: (§6)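 Application before weed emergence: an aqueous dilution of the emulsion formulation was poured onto the surface of 4 cm-deep floodwater on the day of sowing. Effect was judged after 3 weeks (greenhouse, 25–30 °C).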

Scirpus juncoides = experiment: Test Example 2: herbicidal activity, application during weed generation in submerged conditions (symbol B); conditions: Table 23; application herbicide amount 320 g/ha; grade 0-5 by criteria of Test Example 1
How it was run: as §1

[8] = tested on: Echinochloa oryzacola Vasing.; experiment: Test Example 1: herbicidal activity, application before weed generation in submerged conditions (symbol A); conditions: application herbicide amount 320 g/ha
How it was run: as §6

wheat = experiment: Test Example 4: effect on crop by soil treatment (symbol e)
How it was run: as §2

[9] = application herbicide amount 320 g/ha

CC#Cc1cc(C)c(C2=C(O)CC(CC(=NOCCOC)C(C)C)C2=O)c(C)c1 (stereo not shown) [9-023]
Herbicidal effect grade, A: Echinochloa oryzacola Vasing. [1]: 5 (Herbicidal ratio of 90% or more (almost completely withered))
Effect on crop grade, f: beet (beet [2]; [9]): 0 (Herbicidal ratio of 5% or lower (almost no effect))
Effect on crop grade, c: corn (corn; [9]): 3 (Herbicidal ratio of 40% or higher and lower than 70%)
N: Amaranthus retroflexus, herbicidal effect grade (Amaranthus retroflexus): 0 (Herbicidal ratio of 5% or lower (almost no effect))
Q: Galium spurium, herbicidal effect grade (Galium spurium [3]): 0 (Herbicidal ratio of 5% or lower (almost no effect))
Herbicidal effect grade, M: Abutilon theophrasti (Abutilon theophrasti; [9]): 0 (Herbicidal ratio of 5% or lower (almost no effect))
f: beet, effect on crop grade (beet [4]): 0 (Herbicidal ratio of 5% or lower (almost no effect))
b: directly sowed rice plant, effect on crop grade (rice plant): 5 (Herbicidal ratio of 90% or more (almost completely withered))
Herbicidal effect grade, Q: Galium spurium (Galium spurium [5]; [9]): 0 (Herbicidal ratio of 5% or lower (almost no effect))
K: Lolium multiflorum Lam., herbicidal effect grade (Lolium multiflorum Lam.): 5 (Herbicidal ratio of 90% or more (almost completely withered))
J: Alopecurus myosuroides, herbicidal effect grade (Alopecurus myosuroides): 5 (Herbicidal ratio of 90% or more (almost completely withered))
Herbicidal effect grade, C: Monochoria vaginalis (Monochoria vaginalis [6]): 1 (Herbicidal ratio of 5% or higher and lower than 20%)
Herbicidal effect grade, G: Setaria viridis (Setaria viridis; [9]): 5 (Herbicidal ratio of 90% or more (almost completely withered))
C (Monochoria vaginalis) herbicidal effect grade (Monochoria vaginalis [7]): 4 (Herbicidal ratio of 70% or higher and lower than 90%)
Herbicidal effect grade, B: Scirpus juncoides (Scirpus juncoides): 4 (Herbicidal ratio of 70% or higher and lower than 90%)
A (Echinochloa oryzacola Vasing.) herbicidal effect grade [8]: 5 (Herbicidal ratio of 90% or more (almost completely withered))
Effect on crop grade, e: wheat (wheat; [9]): 3 (Herbicidal ratio of 40% or higher and lower than 70%)

CON=C(C)CC1CC(OC(=O)C(CSC)=NOC)=C(c2c(C)cc(C)cc2C)C1=O (stereo not shown) [1-098]
Herbicidal effect grade, A: Echinochloa oryzacola Vasing. [1]: 5 (Herbicidal ratio of 90% or more (almost completely withered))
f: beet, effect grade on crop (beet [2]; 320 g/ha): 0 (Herbicidal ratio of 5% or lower (almost no effect))
c: corn, effect grade on crop (corn; 320 g/ha): 5 (Herbicidal ratio of 90% or more (almost completely withered))
N: Amaranthus retroflexus, herbicidal effect (criteria 0-5) (Amaranthus retroflexus): 0 (Herbicidal ratio of 5% or lower (almost no effect))
Q: Galium spurium, herbicidal effect (criteria 0-5) (Galium spurium [3]): 0 (Herbicidal ratio of 5% or lower (almost no effect))
M: Abutilon theophrasti, herbicidal effect grade (Abutilon theophrasti; 320 g/ha): 4 (Herbicidal ratio of 70% or higher and lower than 90%)
f: beet, effect on crop (criteria 0-5) (beet [4]): 1 (Herbicidal ratio of 5% or higher and lower than 20%)
b: directly sowed rice plant, effect on crop (criteria 0-5) (rice plant): 5 (Herbicidal ratio of 90% or more (almost completely withered))
Q: Galium spurium, herbicidal effect grade (Galium spurium [5]; 320 g/ha): 0 (Herbicidal ratio of 5% or lower (almost no effect))
K: Lolium multiflorum Lam., herbicidal effect (criteria 0-5) (Lolium multiflorum Lam.): 5 (Herbicidal ratio of 90% or more (almost completely withered))
J: Alopecurus myosuroides, herbicidal effect (criteria 0-5) (Alopecurus myosuroides): 5 (Herbicidal ratio of 90% or more (almost completely withered))
Herbicidal effect grade, C: Monochoria vaginalis (Monochoria vaginalis [6]): 3 (Herbicidal ratio of 40% or higher and lower than 70%)
G: Setaria viridis, herbicidal effect grade (Setaria viridis; 320 g/ha): 5 (Herbicidal ratio of 90% or more (almost completely withered))
Herbicidal effect grade, C: Monochoria vaginalis (Monochoria vaginalis [7]): 4 (Herbicidal ratio of 70% or higher and lower than 90%)
Herbicidal effect grade, B: Scirpus juncoides (Scirpus juncoides): 4 (Herbicidal ratio of 70% or higher and lower than 90%)
Herbicidal effect grade, A: Echinochloa oryzacola Vasing. [8]: 5 (Herbicidal ratio of 90% or more (almost completely withered))
e: wheat, effect grade on crop (wheat; 320 g/ha): 3 (Herbicidal ratio of 40% or higher and lower than 70%)
